Test [1] concerns SARS-CoV-2 NSP3 Mac1. The experiment in a line: Overall hit call (binding in crystallographic soaking or the HTRF-based binding assay). The text has this:
Supplement pnas.2212931120.sd01.xlsx, sheet "Compound Summary" | column: HIT*

The target of test [2] is SARS-CoV-2 NSP3 Mac1 (Severe acute respiratory syndrome coronavirus 2, UniProt P0DTD1). Format: binding. The note with it: for Refined occupancy: ligand occupancy after refinement (phenix.refine).
[3] abbreviates: PanDDA event map background density correction, crystal soak, compound concentration 100 mM.
Where [4] appears, read: PanDDA event map, 1 minus background density correction, crystal soaking of Mac1.
The mark [5] stands for this setting: ligand modeled in the crystal structure, crystal soak, compound concentration 100 mM.
Where [6] appears, read: PanDDA 1-BDC of the event, compound stock 100 mM, Echo dispense volume 40 nl.
Setting [7] is: PanDDA 1-BDC of the event, compound stock 100 mM, Echo dispense volume 80 nl.
[8] abbreviates: crystal soak, compound stock 100 mM, Echo dispense volume 40 nl.
[9] abbreviates: crystal soak, compound stock 100 mM, Echo dispense volume 80 nl.
Where [10] appears, read: ligand modeled in structure, compound stock 100 mM, Echo dispense volume 80 nl.
The mark [11] stands for this setting: PanDDA event map 1-BDC, crystal soak, Compound_concentration 100 mM, PanDDA run dmso_34 or nohits_35 per dataset.
[12] abbreviates: PanDDA event map, crystal soak, Compound_concentration 100 mM, Echo_dispense_volume 40 nl.
The mark [13] stands for this setting: crystal soak, Compound_concentration 100 mM, Echo dispense 40 nl, PanDDA run dmso_34 or nohits_35 per dataset.
[14] abbreviates: crystal soak, Compound_concentration 100 mM, Echo_dispense_volume 40 nl, PanDDA run (background map) dmso_34, nohits_35 or nohits_62.
Setting [15] is: ligand modeled, crystal soak, Compound_concentration 100 mM, Echo_dispense_volume 40 nl.

Like-named read-outs stand apart in the source and are kept apart here.

`O=C(O)CC1CC(CNC(=O)c2cncc3sccc23)C1` (stereo not drawn) [Z1558]: in test [1], the “HIT*” value was “Y”.

Take `Cc1oc(C(N)=O)cc1S(=O)(=O)Nc1ccc(Br)c(C#N)c1` [Z6708]: the “HIT*” value in test [1] was “Y”.

In the case of `O=C(O)c1csc(CCNC(=O)c2cc3[nH]cnc3cc2F)n1` [Z5740], in test [2] (setting [3]), the 1-BDC was 0.1. Besides, the “1-BDC (PanDDA)” value in test [2] (setting [4]) is 0.1. Moreover, in test [2] (setting [5]), the “Modeled?” value was “TRUE”. Moreover, the Refined occupancy in test [2] (crystal soaking of Mac1) came to 20. Moreover, the “HIT*” value in test [1] is reported as “Y”.

On to `Cc1oc(CNc2ncnc3[nH]c4ccccc4c23)cc1C(=O)O` [Z3124], for which, in test [1], the “HIT*” value was “Y”.

As to `O=S1(=O)CC(CNc2ncnc3[nH]c4cc(F)ccc4c23)C1` [LRH-0005], the 1-BDC in test [2] (setting [6]) and in test [2] (setting [7]) was 0.1 in each case. For the same compound, the “1-BDC (PanDDA)” value in test [2] (setting [4]) came out at 0.1. In addition, the “PanDDA hit?” value in test [2] (setting [8]) and in test [2] (setting [9]) was “TRUE” throughout. The “Modeled?” value in test [2] (setting [10]) is on record as “TRUE”. For the same compound, the Refined occupancy in test [2] (crystal soaking of Mac1) worked out at 20. Also, in test [1], the “HIT*” value is listed as “Y”.

In test [2] (setting [3]), `CNc1cnc(C(=O)N2CC(c3noc(O)n3)C2)cn1.O=C(O)C(F)(F)F` [Z6567] came in with a 1-BDC of 0.31. The “1-BDC (PanDDA)” value in test [2] (setting [4]) was found to be 0.31. Further, the “Modeled?” value in test [2] (setting [5]) is on record as “TRUE”. This compound also came in with a Refined occupancy in test [2] (crystal soaking of Mac1) of 62. Besides, the “HIT*” value in test [1] is “Y”.

For `[O-][n+]1cccc(Nc2ncnc3[nH]c4cc(F)ccc4c23)c1` [LRH-0031], the results for the 1-BDC in test [2] (setting [6]) and in test [2] (setting [7]) were 0.18 and 0.17, respectively. In addition, the “1-BDC (PanDDA)” value in test [2] (setting [4]) was 0.17. Besides, the “PanDDA hit?” value in test [2] (setting [8]) and in test [2] (setting [9]) was “TRUE” in each case. Besides, the “Modeled?” value in test [2] (setting [10]) is “TRUE”. Also, the Refined occupancy in test [2] (crystal soaking of Mac1) worked out at 34. Also, in test [2] (what was observed in density instead of the vendor structure), the “Comment (ligand modelled in the crystal structure)” value is reported as “pyrimido-indole core only”. In addition, in test [1], the “HIT*” value is “Y”.

Consider `O=C(O)Cc1ccc(CNC(=O)c2ccnc3ccsc23)cc1` [Z6625], for which the “HIT*” value in test [1] is given as “Y”.

On to `COC(=O)CC1CN(c2ncnc3[nH]c4cc(F)ccc4c23)CCO1` (stereo not drawn) [LL114_0040], for which the 1-BDC was 0.08 in test [2] (setting [7]), 0.11 in test [2] (setting [11]) and 0.08 in test [2] (setting [12]). Besides, the “1-BDC (PanDDA)” value in test [2] (setting [4]) was determined as 0.08. The “PanDDA hit?” value in test [2] (setting [13]), in test [2] (setting [14]) and in test [2] (setting [9]) was “TRUE” throughout. The “Modeled?” value in test [2] (setting [15]) was “TRUE”. Besides, in test [2] (crystal soaking of Mac1), the Refined occupancy is reported as 16. For the same compound, the “HIT*” value in test [1] is given as “Y”.

Take `COc1cncc(C(=O)NCCNC(=O)c2ncccc2O)c1` [Z6634]: the “HIT*” value in test [1] is “Y”.

With `CCNc1ncc(C(=O)NCCn2cnc(C(=O)O)c2)s1` [Z6684], in test [2] (setting [4]), the “1-BDC (PanDDA)” value worked out at 0.1. In test [2] (setting [12]), the 1-BDC was 0.1. Moreover, in test [2] (setting [14]), the “PanDDA hit?” value was “TRUE”. Besides, in test [2] (setting [15]), the “Modeled?” value is “TRUE”. Moreover, the Refined occupancy in test [2] (crystal soaking of Mac1) is 20. The “HIT*” value in test [1] is “Y”.

`O=S1(=O)CCCC(Nc2ncnc3[nH]ccc23)C1` (stereo not drawn) [SRH-0010] returned a 1-BDC in test [2] (setting [11]) of 0.13. The “1-BDC (PanDDA)” value in test [2] (setting [4]) is 0.13. The “PanDDA hit?” value in test [2] (setting [13]) was “TRUE”. For the same compound, in test [2] (ligand modeled in this dataset, crystal soak, Compound_concentration 100 mM), the “Modeled?” value is listed as “TRUE”. Also, in test [2] (crystal soaking of Mac1), the Refined occupancy stood at 26. The “HIT*” value in test [1] is “Y”.

For the compound `O=C1OCCN1C1CCN(c2ncnc3[nH]c4cc(F)ccc4c23)C1` (stereo not drawn) [Z5107], the “HIT*” value in test [1] was “Y”.

As for `Cc1oc(C(N)=O)cc1S(=O)(=O)Nc1cnc(Cl)c(C#N)c1` [Z6746], in test [1], the “HIT*” value was “Y”.

`O=S1(=O)CC(CNc2ncnc3[nH]ccc23)C1` [SRH-0005] gave a 1-BDC in test [2] (setting [4]) of 0.09. Also, the “Modeled?” value in test [2] (ligand modeled from this dataset, compound concentration 100 mM) is “TRUE”. In addition, the Refined occupancy in test [2] (crystal soaking of Mac1) came to 18. Moreover, the “HIT*” value in test [1] is “Y”.

These data come from paper PMC9926234, “Iterative computational design and crystallographic screening identifies potent inhibitors targeting the Nsp3 macrodomain of SARS-CoV-2” (Proceedings of the National Academy of Sciences of the …, 2023).
